The text below walks through data of US6566380B2, “Potassium channel inhibitors” (ICAgen, Inc., priority 2000, dated 2003).

Read-outs that look alike come from different tables or passages of the source.

The target in the experiment is Kv1.5 potassium channel (Homo sapiens, UniProt P22460). Put plainly: Electrophysiological studies: whole-cell patch clamp of Kv1.5 currents in CHO cells. It is filed as cell-based. To be noted: Chinese hamster ovary cells stably expressing Kv1.5, whole-cell voltage clamp. How it is done:
Electrophysiological recordings of potassium currents in Chinese hamster ovary cells stably expressing the gene construct for the Kv1.5 potassium channel subunit were performed using the whole cell configuration of the patch clamp technique (Hamill et al., Pflugers Archiv 391:85, 1981). Cell lines expressing Kv1.5 were prepared using standard techniques known to those skilled in the art. Cells were plated on glass coverslips at a density of 2×10^4 cells/coverslip and used within 24-48 hours. Solutions used for electrophysiological recordings were as follows. Extracellular bathing solutions typically contain (in mM) 132 NaCl, 5.4 KCl, 1.8 CaCl2, 0.8 MgCl2, 10 HEPES, 5 glucose at pH 7.3. […] The coverslips were placed in a small chamber (volume ˜200 μl) on the mechanical stage of an inverted microscope and perfused (approximately 2 ml/min) with extracellular recording solution. Drug was applied using a series of narrow-bore glass capillary tubes (inner diameter ˜100 μm) positioned approximately 200 μm from the cell.
As soon as the current recording were stable, a compound representative of the present invention was superfused over the cell until steady-state block was observed. Using this technique, the effects of the compound on peak and steady-state current were determined at progressively increasing compound concentrations.
The testing results of selected compounds from Table 2 using this assay and the techniques described above are reported in Table 3 as the percent inhibition of Kv1.5 potassium channel currents at a single concentration of 0.1 μM.

[1] abbreviates: read-out: Peak current inhibition at 0.1 μM (%).
Setting [2] is: read-out: Steady-state Current Inhibition at 0.1 μM (%).

Chain of Kv1.5 potassium channel (P22460 whole entry): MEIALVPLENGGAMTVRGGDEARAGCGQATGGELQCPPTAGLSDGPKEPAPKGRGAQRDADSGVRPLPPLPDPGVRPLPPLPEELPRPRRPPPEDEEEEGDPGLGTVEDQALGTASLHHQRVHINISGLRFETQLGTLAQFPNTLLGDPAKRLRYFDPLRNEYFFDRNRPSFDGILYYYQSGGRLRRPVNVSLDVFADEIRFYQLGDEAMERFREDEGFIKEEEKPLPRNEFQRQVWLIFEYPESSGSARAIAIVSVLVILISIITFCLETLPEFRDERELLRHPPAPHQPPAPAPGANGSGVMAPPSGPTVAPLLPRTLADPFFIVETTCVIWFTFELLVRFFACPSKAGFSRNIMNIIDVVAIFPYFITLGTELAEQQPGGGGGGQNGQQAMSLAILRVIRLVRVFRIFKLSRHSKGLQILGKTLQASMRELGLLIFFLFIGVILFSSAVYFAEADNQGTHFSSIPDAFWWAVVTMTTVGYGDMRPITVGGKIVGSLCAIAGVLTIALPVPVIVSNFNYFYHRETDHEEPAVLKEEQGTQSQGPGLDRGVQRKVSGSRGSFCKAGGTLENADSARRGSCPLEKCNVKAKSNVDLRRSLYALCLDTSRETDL

The term inhibition denotes the change of the read-out against control, counted positive when it falls. In the case of `C[C@@H](CC(=O)N(Cc1nccn1C)c1ccc2c(c1)[C@@H](NS(=O)(=O)c1ccccc1)CCC2)c1ccccc1` [Example 5], the inhibition at 0.1 µM runs as follows: under setting [1], 45%; under setting [2], 78%.

Take `Cc1ncc(CN(C(=O)C[C@@H](C)c2ccccc2)c2ccc3c(c2)[C@@H](NS(=O)(=O)c2ccccc2)CCC3)n1C(C)C` [Example 21]: the inhibition at 0.1 µM under setting [1] is 58% and the inhibition at 0.1 µM under setting [2] is 67%.

Consider `C[C@@H](CC(=O)N(Cc1nccn1C)c1ccc2c(c1)[C@@H](NS(=O)(=O)c1cccc(Cl)c1)CCC2)c1ccccc1` [Example 6], for which the inhibition at 0.1 µM came out at 30% under setting [1] and 81% under setting [2].

For the compound `C[C@H](CC(=O)N(Cc1nccn1C)c1ccc2c(c1)[C@@H](NS(=O)(=O)c1ccccc1)CCC2)c1ccccc1` [Example 4], the inhibition at 0.1 µM runs as follows: under setting [1], 86%; under setting [2], 89%.

Turning to `C[C@H](CC(=O)N(Cc1nccn1C)c1ccc2c(c1)[C@@H](NS(=O)(=O)c1cccc(Cl)c1)CCC2)c1ccccc1` [Example 2], the inhibition at 0.1 µM under setting [1] came out at 86% and the inhibition at 0.1 µM under setting [2] is 96%.

On to `Cc1ncc(CN(C(=O)C[C@@H](C)c2ccccc2)c2ccc3c(c2)[C@@H](NS(=O)(=O)c2cccc(F)c2)CCC3)n1C(C)C` [Example 20], for which the inhibition at 0.1 µM under setting [1] amounted to 52% and the inhibition at 0.1 µM under setting [2] was determined as 64%.

On to `C[C@@H](CC(=O)N(Cc1nccn1C)c1ccc2c(c1)[C@H](NS(=O)(=O)c1cccc(F)c1)CCC2)c1ccccc1` [Example 16], for which the inhibition at 0.1 µM is, setting by setting: under setting [1], 88%; under setting [2], 100%.

`C[C@H](CC(=O)N(Cc1nccn1C)c1ccc2c(c1)[C@@H](NS(=O)(=O)c1ccc(F)c(Cl)c1)CCC2)c1ccccc1` [Example 3]: the inhibition at 0.1 µM amounted to 84% under setting [1] and 93% under setting [2].

Turning to `Cc1cccc(CN(C(=O)C[C@@H](C)c2ccccc2)c2ccc3c(c2)[C@@H](NS(=O)(=O)c2ccccc2)CCC3)n1` [Example 23], the inhibition at 0.1 µM was found to be 75% under setting [1] and 90% under setting [2].

Take `COc1ccc(S(=O)(=O)N[C@H]2CCCc3ccc(N(Cc4nccn4C)C(=O)C[C@@H](C)c4ccccc4)cc32)cc1` [Example 18]: the inhibition at 0.1 µM under setting [1] worked out at 72% and the inhibition at 0.1 µM under setting [2] is 84%.

On to `C[C@@H](CC(=O)N(Cc1nccn1C)c1ccc2c(c1)[C@H](NS(=O)(=O)c1cccc(Cl)c1)CCC2)c1ccccc1` [Example 17], for which the inhibition at 0.1 µM is, setting by setting: under setting [1], 84%; under setting [2], 97%.

For the compound `C[C@@H](CC(=O)N(Cc1nccn1C)c1ccc2c(c1)[C@H](NS(=O)(=O)c1cccs1)CCC2)c1ccccc1` [Example 19], the inhibition at 0.1 µM amounted to 53% under setting [1] and 79% under setting [2].

Turning to `Cc1cccc(CN(C(=O)C[C@@H](C)c2ccccc2)c2ccc3c(c2)[C@@H](NS(=O)(=O)c2ccc(F)c(Cl)c2)CCC3)n1` [Example 24], the inhibition at 0.1 µM under setting [1] was 48% and the inhibition at 0.1 µM under setting [2] turned out to be 65%.

On to `Cc1cccc(CN(C(=O)C[C@H](C)c2ccccc2)c2ccc3c(c2)[C@H](NS(=O)(=O)c2ccccc2)CCC3)n1` [Example 25], for which the inhibition at 0.1 µM runs as follows: under setting [1], 26%; under setting [2], 50%.

Turning to `C[C@@H](CC(=O)N(Cc1nccn1C)c1ccc2c(c1)[C@H](NS(=O)(=O)c1cccc(F)c1)CCC2)c1ccc(F)cc1` [Example 26], the inhibition at 0.1 µM under setting [1] worked out at 52% and the inhibition at 0.1 µM under setting [2] came to 76%.

Consider `C[C@H](CC(=O)N(Cc1nccn1C)c1ccc2c(c1)[C@@H](NS(=O)(=O)c1cccc(F)c1)CCC2)c1ccccc1` [Example 12], for which the inhibition at 0.1 µM under setting [1] is 68% and the inhibition at 0.1 µM under setting [2] is 85%.

`C[C@@H](CC(=O)N(Cc1nccn1C)c1ccc2c(c1)[C@@H](NS(=O)(=O)c1ccc(F)cc1)CCC2)c1ccccc1` [Example 9]: the inhibition at 0.1 µM under setting [1] is 53% and the inhibition at 0.1 µM under setting [2] was determined as 61%.

`C[C@@H](CC(=O)N(Cc1nccn1C)c1ccc2c(c1)[C@H](NS(=O)(=O)c1ccccc1)CCC2)c1ccccc1` [Example 11]: the inhibition at 0.1 µM under setting [1] was determined as 76% and the inhibition at 0.1 µM under setting [2] was 91%.

For `CC(CC(=O)N(Cc1nccn1C)c1ccc2c(c1)C(NS(=O)(=O)c1ccc(F)cc1)CCC2)c1ccccc1` (centres unmarked) [Example 1], the inhibition at 0.1 µM under setting [1] came to 42% and the inhibition at 0.1 µM under setting [2] amounted to 67%.
